In patent US11883416B2, “Methods and compositions for the treatment of IL13Ra2—overexpressing cancer” (CONSEJO SUPERIOR DE INVESTIGACIONES CIENTÍFICAS (CSIC), priority 2020, dated 2024):
“Also recorded” adds a separate entry of the source.

Legend:
[1] = type: cell-based; conditions: data not shown
Procedure: (§1) Next, the effect of the PTP1B inhibitor Claramine on the pro-invasive effects of IL-13 was investigated. First, the cellular toxicity of Claramine was studied at different doses. Claramine at 5 μM caused around 50% decrease in cell survival, but had no effect at 2 μM, which was used in the remaining experiments (data not shown). […] The effects of Claramine on cell adhesion, migration, invasion, and, to a minor extent, proliferation mimicked the effects of PTP1B silencing in the three types of cancer cells (FIG. 5 B-E).

KM12SM cells [2] = test: IL-13-induced cell adhesion to Matrigel; type: cell-based, human; conditions: IL-13 10 ng/ml, Claramine 2 μM, trifluoroacetate salt
Procedure: (§2) FIG. 5. […] B) KM12SM cells were subjected to cell adhesion. C) KM12SM and U87MG cells were subjected to MTT assays. The three cell lines were subjected to D) migration and E) invasion assays. All the experiments were done in the presence or absence of IL-13, Claramine and/or anti-IL13Rα2 blocking antibodies.
(§3) Adhesion, wound healing and invasion assays have been previously reported.
as §1

KM12SM cells [3] = test: Western blot of pSrc Y530 in IL-13-treated cells; type: cell-based, human; conditions: 2 μM Claramine, IL13-treated KM12SM
Procedure: as §2
(§4) Western blot assays were done as previously described.
as §1

A2780 cells [4] = test: Western blot of pSrc Y530 in IL-13-treated cells; type: cell-based, human; conditions: 2 μM Claramine, IL13-treated A2780
Procedure: as §2, §4, §1

U87MG cells [5] = test: Western blot of pSrc Y530 in IL-13-treated cells; type: cell-based, human; conditions: 2 μM Claramine, IL13-treated U87MG
Procedure: as §2, §4, §1

[6] = MTT assay for survival to oxidative stress (IL-13 promoted cell survival); type: cell-based; conditions: data not shown
Procedure: (§5) Proliferation assays have been previously described. To assess cell survival to oxidative stress, 10^4 cells were seeded per well on 96-well plates and incubated for 24 h in DMEM containing 1% serum in presence of 1 mM H2O2, followed by 1 h incubation with MTT. Cell viability was determined by A560 nm and compared with untreated cells.
as §1

U251 GBM cells = test: Western blot of EGF and IL-13 signaling (pEGFR Y1068, pPTP1B Y66, pSrc Y419); type: cell-based, human
Procedure: FIG. 6. […] (A) U251 cells were treated with EGF, IL-13 or both, with or without Claramine. Cell extracts were analyzed by western blot to detect pEGFR Y1068, pPTP1B Y66, and pSrc Y419. B) U251 cells silenced for EGFR, IL13Rα2 or control cellswere treated with EGF or IL-13 in the presence or absence of Claramine. Cells were lysed and whole extracts were analyzed by western blot to detect pEGFR Y1068, pPTP1B Y66 and pSrc Y419.
as §4
EGFR is a substrate of PTP1B and might cooperate with IL13Rα2 in GBM invasion. To determine whether PTP1B participates in the modulation of the EGFR pathway besides the IL13Rα2, the effect of Claramine on EGF and IL-13 signaling in GBM was investigated. […] PTP1B Tyr66 was also phosphorylated by EGF and IL-13, indicating the participation of PTP1B in both pathways.

KM12SM cells [7] = test: colorectal cancer liver metastasis model, intrasplenic inoculation; type: in vivo, Swiss nude mice
Procedure: (§6) FIGS. 7A-7E show PTP1B inhibition increases survival in CRC and glioblastoma mouse models. […] Murine β-actin amplification was used as a loading control.
(§7) For GBM xenografts, NSG mice were subcutaneously inoculated with U251 cells. Then, mice were treated intraperitoneally with 7 doses of Claramine (every three days) starting day 15 after implantation (a total of 2 mg/kg of body weight). The size of subcutaneous tumors was measured every 2 days. After euthanasia, tumors were isolated and the extracts subjected to Western blot analysis to determine IL13Rα2 and PTP1B activation. Liver homing and metastasis experiments in Swiss nude mice have been described. For CRC metastasis, mice were treated with the same dose of Claramine as above. Animals were weighed to study the effects on food intake and tolerance to the treatment.
Finally, the in vivo effects of PTP1B silencing or inhibition in colorectal cancer and glioblastoma mouse models were investigated. Given the high homology between murine and human IL-13, it was hypothesized that it was unnecessary to treat the mice with exogenous human IL-13 (11). Fora further confirmation, human and murine IL-13 were compared in an invasion experiment. Both IL-13 promoted a similar pro-invasive capacity on human cancer cells (data not shown). Then, the effect of PTP1B silencing on the capacity for liver homing of KM12SM cells inoculated in the spleen of nude mice was examined. As a surrogate marker for homing, human GAPDH was detected in the livers of mice inoculated with control cells but not in those inoculated with PTP1B-silenced cells (FIG. 7A). Then, the effects of Claramine on mice survival in colorectal cancer metastasis were investigated. Forty-eight h after spleen inoculation with CRC cells, mice were treated intraperitoneally (i.p.) with Claramine for two weeks on alternate days, with a total dose of 49 μg/mouse.

KM12SM cells [8] = test: phosphorylation of insulin receptor substrate 1 (IRS-1); type: cell-based, human; conditions: KM12SM cells treated with IL-13 and Claramine
Source text: (§8) As PTP1B silencing or Claramine treatment might modulate glucose and energy homeostasis including insulin signaling, the effect of IL-13 on the glucose uptake and insulin signaling was also investigated. IL-13 increased the glucose uptake in GMB cells but not in CRC cells (data not shown). […] The phosphorylation of insulin receptor substrate 1 (IRS-1) in CRC and GBM cells treated with IL-13 and Claramine was then studied. A strong phosphorylation of IRS-1 in U251 cells treated with IL-13 was found. In contrast, phosphorylation of IRS-1 in KM12SM cells was much weaker, without differences after IL-13 addition. […] Together, these studies support that Claramine effect on tumor cells seems to be independent of the glucose homeostasis.

U251 cells [9] = test: as above; type: cell-based, human; conditions: U251 cells treated with IL-13 and Claramine
Source text: as §8

GBM12 PDX = test: intracranial model of GBM; type: in vivo, athymic nude mice
Source text: as §6
For intracranial experiments, athymic nude male mice were purchased from Jackson Laboratories. All experiments were approved by the Northwestern University Institutional Animal Care and Use Committee (IACUC). For the intracranial implantation of cannula and tumor cells, 6-8 weeks old […] mice were first anesthetized with a ketamine HCl (25 mg/ml)/xylazine (2.5 mg/ml) cocktail. A previously established surgical procedure was utilized in this study with a small variation reflecting the cannula implantation. For that, a custom-made 26 gauge sterile guide cannula (Plastics One, Roanoke, VA) was installed into the brain through a burr hole at 2 mm depth and secured with tissue glue (3M, St Paul, MN). For the glioma PDX cells implantation, a 33-gauge sterile syringe was inserted into the guide cannula at 3 mm depth following by infusion of 2.5 μl of 10^5 GBM12 cells. The skin incision was closed with surgical glue around the implantation site. The extracranial end of the cannula was then covered with a 33-gauge protection dummy cannula. The surgical procedure was followed with a standard post-surgery care according to the approved protocol. The intracranial injection of Claramine through cannula was done in 4 fractions for a total 4-8 mg/kg starting day 7 after tumor implantation and every 3 days after that. For systemic treatment, Claramine was delivered intravenously in 4 fractions for a total 8, 15 or 30 mg/kg starting day 7 after tumor implantation and every 3 days after that. Sterile 0.9% saline solution served as a negative control in all experiments.
Finally, an intracranial model of GBM using the GBM12 PDX that expresses high amounts of IL13Rα2 was tested. Tumors were implanted intracranially for seven days before starting the treatment with four doses of Claramine for a total of 4 mg/kg or 8 mg/kg (FIG. 7E). The median survival for the treated mice increased up to 36-39 days from 27 days of the control mice.

KM12SM cells [10] = test: MTT proliferation assay with IL-13; type: cell-based, human; conditions: IL-13, Claramine 2 μM
Procedure: as §2, §5, §1

U87MG cells [11] = test: MTT proliferation assay with IL-13; type: cell-based, human; conditions: IL-13, Claramine 2 μM
Procedure: as §2, §5, §1

U251 cells [12] = test: GBM subcutaneous xenograft tumor growth; type: in vivo, NSG mice
Procedure: as §6, §7
Next, the in vivo effect of Claramine on GBM tumor growth and intracranial inoculation was investigated. First, mice were subcutaneously inoculated with U251 cells and xenografts were allowed to grow for 15 days before starting i.p. treatment with Claramine (FIG. 7C). Tumors in treated mice stop growing for the duration of the treatment when compared with non-treated mice. […] In addition, the involvement of IL13Rα2 and PTP1B in the tumor growth was studied using xenograft tissues. A significant increase of PTP1B phosphorylation (3-5 times) in vivo compared to cells in culture was found. […] An increased expression of IL13Rα2 in the xenografts was also noticed.

KM12SM cells [13] = test: IL-13-triggered invasion assay; type: cell-based, human; conditions: IL-13, Claramine 2 μM, trifluoroacetate salt
Procedure: as §2, §3, §1

A2780 cells [14] = test: IL-13-triggered invasion assay; type: cell-based, human; conditions: A2780, IL-13, Claramine 2 μM; trifluoroacetate salt
Procedure: as §2, §3, §1

U87MG cells [15] = test: IL-13-triggered invasion assay; type: cell-based, human; conditions: IL-13, Claramine 2 μM, trifluoroacetate salt
Procedure: as §2, §3, §1

KM12SM cells [16] = test: IL-13-triggered migration (wound healing) assay; type: cell-based, human; conditions: IL-13, Claramine 2 μM, trifluoroacetate salt
Procedure: as §2, §3, §1

A2780 cells [17] = test: IL-13-triggered migration (wound healing) assay; type: cell-based, human; conditions: A2780, IL-13, Claramine 2 μM; trifluoroacetate salt
Procedure: as §2, §3, §1

U87MG cells [18] = test: IL-13-triggered migration (wound healing) assay; type: cell-based, human; conditions: IL-13, Claramine 2 μM, trifluoroacetate salt
Procedure: as §2, §3, §1

GBM cells = test: 2-NBDG glucose uptake assay; type: cell-based, human; conditions: data not shown
Procedure: Flow cytometry was performed as previously described. For IL13Rα2 internalization assays, cells were starved for 3 h, detached with 2 mM EDTA, incubated 30 min with IL-13 at 37° C., primary and secondary antibodies for 30 min at 4° C. and analyzed in the cytofluorimeter as previously described. For glucose uptake determination, cells were incubated with IL-13 and/or Claramine and subjected to the assays using 2-NBDG glucose uptake assays kit (BioVision) according to manufacturer's instructions. Glucose uptake was quantified in the cytofluorimeter.
as §8

[19] = U251 cells silenced for EGFR, IL13Rα2 or control, FIG. 6B

Structure (SMILES): CC(C)CCC[C@@H](C)[C@H]1CC[C@H]2[C@@H]3C[C@@H](NCCCNCCCCNCCCN)C4C[C@@H](O)CC[C@]4(C)[C@H]3CC[C@]12C.O=C(O)C(F)(F)F (stereo partly drawn) [Claramine, (3β, 6β)-6-[[3-[[4-[(3-Aminopropyl)amino]butyl]amino]propyl]amino]-cholestan-3-ol trifluoroacetate salt]
- effect on cell survival ([1]; Claramine at 2 μM): no effect
- decrease in cell survival ([1]; Claramine at 5 μM): around 50%
- IL-13-induced cell adhesion to Matrigel (KM12SM cells [2]): inhibited; also recorded: abolished
- phosphorylation of Src Tyr530 (KM12SM cells [3]): preserved
- phosphorylation of Src Tyr530 (A2780 cells [4]): preserved
- phosphorylation of Src Tyr530 (U87MG cells [5]): preserved
- IL-13 promoted cell survival [6]: significant reduction
- EGFR activation (U251 GBM cells; [19]): suppressed
- Src activation (U251 GBM cells; [19]): suppressed
- activation of EGFR (pEGFR Y1068) by EGF and IL-13 (U251 GBM cells; U251 cells, FIG. 6A): inhibited
- activation of Src (pSrc Y419) by EGF and IL-13 (U251 GBM cells; U251 cells, FIG. 6A): inhibited
- mice survival (Kaplan-Meier) (KM12SM cells [7]; KM12SM intrasplenic, p<0.001): significantly increased
- state of treated mice at sacrifice (KM12SM cells [7]; day 100 post-inoculation, total dose 49 μg/mouse i.p.): without symptoms of the disease, presence of metastatic nodes or weight loss
- protection against liver metastases (KM12SM cells [7]; i.p., two weeks on alternate days, total dose 49 μg/mouse, trifluoroacetate salt): complete protection; also recorded: complete inhibition
- IRS-1 phosphorylation (KM12SM cells [8]): did not affect
- IRS-1 phosphorylation (U251 cells [9]): did not affect
- mice survival (Kaplan-Meier), treated versus control (GBM12 PDX; GBM12 PDX intracranial, p<0.001, trifluoroacetate salt): significantly increased; also recorded: statistically significant difference in survival; also recorded: considerable increase
- survival up to (GBM12 PDX; four doses, total of 4 mg/kg or 8 mg/kg, from day 7): 70-72 days post-inoculation
- median survival (GBM12 PDX; four doses, total of 4 mg/kg or 8 mg/kg, from day 7, control mice 27 days): 36 to 39 days
- proliferation (MTT) (KM12SM cells [10]): inhibited
- proliferation (MTT) (U87MG cells [11]): inhibited
- phosphorylation of PTP1B in xenograft tissues (U251 cells [12]; Western blot of tumor extracts): moderate inhibition
- toxicity / weight of the animals (U251 cells [12]; during i.p. treatment with Claramine, trifluoroacetate salt): remained constant; also recorded: No Claramine toxicity was observed
- tumor growth (U251 cells [12]; i.p. treatment starting 15 days after implantation, 7 doses, total 2 mg/kg, trifluoroacetate salt): significantly inhibited; also recorded: stop growing; also recorded: regression
- cell invasion (KM12SM cells [13]): inhibit
- cell invasion (A2780 cells [14]): inhibit
- cell invasion (U87MG cells [15]): inhibit
- cell migration (KM12SM cells [16]): inhibit
- cell migration (A2780 cells [17]): inhibit
- cell migration (U87MG cells [18]): inhibit
- IL-13-increased glucose uptake (GBM cells): did not inhibit
